Measurements taken from ChEMBL document CHEMBL4265871, “Novel alkylated azoles as potent antifungals” (Eur J Med Chem, 2017).

Assays:
Candida albicans [1] = test: Effect on sterol composition in Candida albicans ATCC 10231 assessed as eburicol level at 0.125 ug/mL incubated for […] by GC-MS analysis
Candida albicans [2] = test: Effect on sterol composition in Candida albicans ATCC 64124 assessed as ergosterol level at 1.95 ug/mL incubated for 10 mins by LC-MS analysis (reference value: 54.72%)
Candida albicans [3] = test: Effect on sterol composition in Candida albicans ATCC 64124 assessed as unknown sterol level at 1.95 ug/mL incubated for 10 mins by LC-MS analysis (reference value: 2.67 to 6.98%)
Candida albicans [4] = test: Fungicidal activity against Candida albicans ATCC 10231 assessed as reduction in microbial growth at 4 times MIC incubated for 6 hrs by time kill assay; format: functional
Candida albicans [5] = test: Effect on sterol composition in Candida albicans ATCC 10231 assessed as 14-alpha-methyl-ergosta-8,24(28)dien-3beta,6alpha-diol level at 0.125 ug/mL incubated for […] by GC-MS analysis
Candida albicans [6] = test: Effect on sterol composition in Candida albicans ATCC 10231 assessed as lanosterol level at 0.125 ug/mL incubated for 10 mins by GC-MS analysis (reference value: 4.17%)
Candida albicans [7] = test: Effect on sterol composition in Candida albicans ATCC 64124 assessed as eburicol level at 1.95 ug/mL incubated for 10 mins by LC-MS analysis (reference value: 6.28%)
A549 = test: Toxicity in human A549 cells assessed as reduction in cell viability up to 7.8 ug/ml incubated for 24 hrs by resazurin dye based assay; conditions: a549, 24 h

Compound	Activity (Candida albicans [1])	Activity (Candida albicans [2])	Activity (Candida albicans [3])	Activity (Candida albicans [4])	Activity (Candida albicans [5])	Activity (Candida albicans [6])	Activity (Candida albicans [7])	Activity (A549)
CCCCCCC(O)(Cn1cncn1)c1ccc(Cl)cc1Cl (stereo not drawn)	2.93%	5.73%	4.25 - 13.04%	1.25 log10CFU	18.81%	19.3%	47.97%	
CCCCCCCCC(O)(Cn1cncn1)c1ccc(F)cc1F (stereo not drawn)								Non-Toxic
